From patent US20090318491A1 (priority 2006, published 2009)

Columns and labels:
α3β4* nAChR = target: T1, α3β4* nAChR (Bos taurus, UniProt Q07263+Q8SPU6); assay: biochemical; type: binding, calf
T1 construct: 100 μL of the calf adrenal membrane protein fraction (60-70 μg); from tissue; host or cells: calf adrenals, membrane fraction
Experimental: Preparation of Calf Adrenals
Frozen calf adrenals (−80° C.) were placed on ice for 30-60 min and allowed to thaw slowly before they were cut into small pieces. After determination of the wet weight (4-6 g), the tissue was homogenised in HSS-buffer (Ultraturrax at 750 rpm). The homogenate was centrifuged (30,000×g, 10 min, 4° C.), the pellets collected and washed. This procedure was repeated five times. The buffer volume used to re-suspend the pellets was calculated on the basis of the wet weight in a ratio 1:6.5.
The prepared tissues were stored in aliquots at −80° C. One hour before the experiments the tissues were slowly thawed, homogenised in HSS-buffer and centrifuged (25,000×g, 20 min, 4° C.). The pellets were re-suspended in fresh HSS-buffer and used for radioligand binding assays.
Competition Assay Using (±)-[^3H]Epibatidine ([^3H]Epi) and Calf Adrenals Membrane Fraction (α3β4*nAChR)
Each assay sample, with a total volume of 500 μL contained 200 μL of the test compound, 100 μL of (±)-[^3H]epibatidine, 100 μL of the calf adrenal membrane protein fraction (60-70 μg) and 100 μM of HSS-buffer. Non-specific binding was determined in the presence of 300 μM (−)-nicotine tartrate salt. The samples were homogenised and incubated for 90 min at 22° C. The incubation was terminated by vacuum filtration through glass fibre filters presoaked in 1% poly(ethyleneimine). The filters were rinsed three times with TRIS-buffer, punched out and transferred into 4 mL scintillation vials. The scintillation vials were filled with scintillation cocktail (2 mL) and the radioactivity was measured using a liquid scintillation counter.

(α1)2β1γδ nAChR = target: T2, (α1)2β1γδ nAChR (Tetronarce californica, UniProt P02710+P02714+P02718); assay: biochemical; type: binding, Torpedo californica
T2 construct: 100 μL of the Torpedo californica electroplax fraction (60-70 μg); from tissue; host or cells: Torpedo californica electric organ (electroplax) membranes
T2 sequence (P02710 25-461): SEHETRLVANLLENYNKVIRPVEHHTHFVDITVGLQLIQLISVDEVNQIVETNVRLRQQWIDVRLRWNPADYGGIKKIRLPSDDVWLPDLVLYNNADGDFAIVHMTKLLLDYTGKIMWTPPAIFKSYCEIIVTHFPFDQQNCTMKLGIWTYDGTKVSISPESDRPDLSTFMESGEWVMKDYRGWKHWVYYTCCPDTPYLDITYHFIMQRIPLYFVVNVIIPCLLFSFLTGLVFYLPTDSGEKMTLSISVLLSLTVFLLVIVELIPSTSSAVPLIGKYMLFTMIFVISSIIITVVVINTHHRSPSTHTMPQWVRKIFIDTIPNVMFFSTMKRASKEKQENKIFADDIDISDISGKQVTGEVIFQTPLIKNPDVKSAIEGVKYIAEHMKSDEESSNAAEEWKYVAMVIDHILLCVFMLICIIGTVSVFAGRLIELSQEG
T2 sequence (P02712 25-493, further chain): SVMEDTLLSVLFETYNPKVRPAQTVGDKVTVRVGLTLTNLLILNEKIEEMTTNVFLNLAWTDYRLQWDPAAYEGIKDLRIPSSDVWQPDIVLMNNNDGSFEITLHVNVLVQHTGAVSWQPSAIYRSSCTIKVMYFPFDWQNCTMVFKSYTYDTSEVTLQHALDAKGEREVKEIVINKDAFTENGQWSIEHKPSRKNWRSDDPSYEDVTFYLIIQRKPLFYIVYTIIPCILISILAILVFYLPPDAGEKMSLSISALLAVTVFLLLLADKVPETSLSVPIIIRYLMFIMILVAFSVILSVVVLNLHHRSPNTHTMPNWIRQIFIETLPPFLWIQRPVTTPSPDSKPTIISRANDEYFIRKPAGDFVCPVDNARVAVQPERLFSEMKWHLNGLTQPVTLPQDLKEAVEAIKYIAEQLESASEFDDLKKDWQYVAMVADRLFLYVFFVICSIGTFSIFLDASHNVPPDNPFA
T2 sequence (P02718 22-522): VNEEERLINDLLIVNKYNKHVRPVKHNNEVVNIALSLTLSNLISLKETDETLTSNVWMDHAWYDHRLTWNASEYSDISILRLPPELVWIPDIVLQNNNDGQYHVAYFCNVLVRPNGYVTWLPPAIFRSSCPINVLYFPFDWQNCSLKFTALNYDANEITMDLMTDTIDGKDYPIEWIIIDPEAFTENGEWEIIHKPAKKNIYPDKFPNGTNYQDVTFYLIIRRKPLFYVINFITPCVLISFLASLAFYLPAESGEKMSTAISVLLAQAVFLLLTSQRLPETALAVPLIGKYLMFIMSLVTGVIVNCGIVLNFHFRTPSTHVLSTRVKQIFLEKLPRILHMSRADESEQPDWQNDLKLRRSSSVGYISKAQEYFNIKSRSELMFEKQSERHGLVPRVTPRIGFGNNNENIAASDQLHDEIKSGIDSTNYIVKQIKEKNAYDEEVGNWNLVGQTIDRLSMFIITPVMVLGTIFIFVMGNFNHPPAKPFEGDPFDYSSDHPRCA
T2 sequence (P02714 18-506): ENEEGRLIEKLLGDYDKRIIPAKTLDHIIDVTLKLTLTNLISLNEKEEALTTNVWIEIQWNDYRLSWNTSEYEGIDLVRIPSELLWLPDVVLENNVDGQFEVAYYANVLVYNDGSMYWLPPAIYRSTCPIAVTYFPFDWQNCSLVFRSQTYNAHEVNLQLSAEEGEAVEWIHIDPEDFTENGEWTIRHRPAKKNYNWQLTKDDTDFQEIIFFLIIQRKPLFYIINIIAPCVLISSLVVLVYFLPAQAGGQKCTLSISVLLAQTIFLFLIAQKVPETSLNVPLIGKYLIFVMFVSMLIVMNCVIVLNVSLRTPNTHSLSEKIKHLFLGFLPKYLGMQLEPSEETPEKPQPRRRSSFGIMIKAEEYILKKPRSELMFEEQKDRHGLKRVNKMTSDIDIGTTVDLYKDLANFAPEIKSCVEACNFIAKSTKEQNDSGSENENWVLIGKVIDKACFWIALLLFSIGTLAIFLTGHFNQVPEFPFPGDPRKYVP
Experimental: Preparation of Torpedo californica Electroplax
Frozen samples of Torpedo californica electric organ (−80° C.) were placed on ice for 30-60 min and allowed to thaw slowly before the membrane preparation. The tissue was homogenised in an ice-cold HSS-buffer (Ultraturrax at 750 rpm) and centrifuged (30,000×g, 10 min, 4° C.). The pellets were collected, washed four times with HSS-buffer through re-homogenization and centrifugation at the same settings. The remaining pellets were collected, re-suspended in HSS and stored in aliquots at −80° C.
One hour before the experiments the tissues were slowly thawed, homogenised in HSS-buffer and centrifuged (25,000×g, 20 min, 4° C.). The pellets were re-suspended in fresh HSS-buffer and used for radioligand binding assays.
Competition Assay Using (±)-[^3H]Epibatidine ([^3H]Epi) and Torpedo californica Electroplax ((α1)2β1γδ nAChR)
(§1) A dilution row of 6-9 concentrations of the test compound was prepared. Each assay sample, with a total volume of 500 μL contained 200 μL of the test compound, 100 μL of (±)-[^3H]epibatidine and 100 μL of the Torpedo californica electroplax fraction (60-70 μg). Non-specific binding was determined in the presence of 300 μM (−)-nicotine tartrate salt. The samples were homogenised and incubated for 90 min at 22° C. The incubation was terminated by vacuum filtration through glass fibre filters pre-soaked in 1% poly(ethyleneimine). The filters were rinsed three times with TRIS-buffer, punched out and transferred into 4 mL scintillation vials. The scintillation vials were filled with scintillation cocktail (2 mL) and the radioactivity was measured using a liquid scintillation counter.
Assays were carried out in duplicates, triplicate or quadruplicates.
(§2) Biological evaluation of the compounds on various nicotinic actylcholine receptors (nAChRs) was conducted with cells described below. […] Functional agonist activity of the cytisines in cells using a fluorescence assay sensitive to changes in cytosolic calcium.

α4β2* nAChR = target: T3, α4β2* nAChR (Rattus norvegicus, UniProt P09483+P12390); assay: biochemical; type: binding
T3 construct: Frozen rat brains were thawed slowly before the preparation of the P2 rat brain membrane fraction; from tissue; host or cells: rat brain (without cerebellum and medulla), P2 membrane fraction
T3 sequence (P12390 25-500): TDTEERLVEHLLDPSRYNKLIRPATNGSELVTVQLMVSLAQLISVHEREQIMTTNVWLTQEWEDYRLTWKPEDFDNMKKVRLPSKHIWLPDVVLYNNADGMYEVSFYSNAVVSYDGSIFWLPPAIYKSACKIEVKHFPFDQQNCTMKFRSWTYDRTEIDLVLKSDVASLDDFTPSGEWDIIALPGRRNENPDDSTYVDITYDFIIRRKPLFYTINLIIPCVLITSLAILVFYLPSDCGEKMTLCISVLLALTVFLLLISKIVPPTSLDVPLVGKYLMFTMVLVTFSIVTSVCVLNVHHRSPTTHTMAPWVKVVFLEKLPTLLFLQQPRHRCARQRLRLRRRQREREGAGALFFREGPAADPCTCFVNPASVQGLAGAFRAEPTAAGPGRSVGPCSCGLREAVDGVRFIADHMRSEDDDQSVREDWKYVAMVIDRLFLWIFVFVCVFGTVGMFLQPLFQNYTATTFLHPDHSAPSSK
T3 sequence (P09483 31-630): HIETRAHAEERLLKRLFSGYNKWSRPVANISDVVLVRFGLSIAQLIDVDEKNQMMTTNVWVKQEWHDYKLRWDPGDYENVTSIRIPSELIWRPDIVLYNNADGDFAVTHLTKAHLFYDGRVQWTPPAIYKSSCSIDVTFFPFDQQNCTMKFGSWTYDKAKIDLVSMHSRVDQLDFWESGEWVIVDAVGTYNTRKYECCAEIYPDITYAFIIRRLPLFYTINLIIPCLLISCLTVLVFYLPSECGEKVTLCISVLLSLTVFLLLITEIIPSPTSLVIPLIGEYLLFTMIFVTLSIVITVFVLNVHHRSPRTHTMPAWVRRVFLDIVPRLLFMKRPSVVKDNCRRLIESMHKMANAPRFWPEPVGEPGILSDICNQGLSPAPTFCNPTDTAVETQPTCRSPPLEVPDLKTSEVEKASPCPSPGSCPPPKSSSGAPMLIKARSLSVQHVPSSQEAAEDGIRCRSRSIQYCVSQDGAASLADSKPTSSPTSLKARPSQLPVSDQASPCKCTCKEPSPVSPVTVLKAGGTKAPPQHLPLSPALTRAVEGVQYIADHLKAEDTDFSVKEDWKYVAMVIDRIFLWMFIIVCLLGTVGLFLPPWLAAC
Experimental: (§3) Preparation of Rat Brains
(§4) Frozen rat brains were thawed slowly before the preparation of the P2 rat brain membrane fraction (30-60 min on ice, afterwards at room temperature). […] After the determination of the wet weight (1.32 g on average), the brains were pressed into a pulp using a syringe and homogenised in saccharose buffer with a glass teflon homogenizator (Potter, 10 seconds). The tissue was then centrifuged (1,000×g, 20 min, 4° C.), the supernatant (S1) aspirated with a Pasteur pipette and stored on ice. The P1 pellet was re-suspended in saccharose buffer and the centrifugation was repeated. The supernatant S1′ was collected and added to the supernatant S1. The combined supernatants were centrifuged (25,000×g, 20 min, 4° C.), the supernatant S2 was removed and the pellet P2 collected and diluted with HSS-buffer. The buffer volume added was calculated on the basis of the wet weight in a ratio 1:2.
(§5) The final pellet was stored in aliquots at −80° C. On the day of the experiment, the P2 membrane fraction was thawed, diluted with HSS-buffer (30-fold volume), homogenised and centrifuged (35,000×g, 10 min, 4° C.). The collected pellet was suspended in HSS-buffer and used in the radioligand binding experiments.
Competition Assay Using (±)-[^3H]Epibatidine ([^3H]Epi) and Rat Brain P2-Fraction (α4β2*nAChR)
as §1, with “contained 100 μL of the membrane protein (60 μg), 100 μL of (±)-[^3H]epibatidine (0.5 nM), 100 μL of HSS-buffer and” for “contained”, “test compound” for “test compound, 100 μL of (±)-[^3H]epibatidine and 100 μL of the Torpedo californica electroplax fraction (60-70 μg).”, “The filter” for “The filters”
Assays were carried out in duplicate, triplicates or quadruplicates.
as §2

α7* nAChR = target: T4, α7* nAChR (Rattus norvegicus, UniProt Q05941); assay: Competition assay using [3H]methyllycaconitine and rat brain P2-fraction; type: binding; settings: preliminary results; read-out: α7* [3H]MLA rat brain Ki
T4 construct: Frozen rat brains were thawed slowly before the preparation of the P2 rat brain membrane fraction; from tissue; host or cells: rat brain P2 membrane fraction
T4 sequence (Q05941 23-502): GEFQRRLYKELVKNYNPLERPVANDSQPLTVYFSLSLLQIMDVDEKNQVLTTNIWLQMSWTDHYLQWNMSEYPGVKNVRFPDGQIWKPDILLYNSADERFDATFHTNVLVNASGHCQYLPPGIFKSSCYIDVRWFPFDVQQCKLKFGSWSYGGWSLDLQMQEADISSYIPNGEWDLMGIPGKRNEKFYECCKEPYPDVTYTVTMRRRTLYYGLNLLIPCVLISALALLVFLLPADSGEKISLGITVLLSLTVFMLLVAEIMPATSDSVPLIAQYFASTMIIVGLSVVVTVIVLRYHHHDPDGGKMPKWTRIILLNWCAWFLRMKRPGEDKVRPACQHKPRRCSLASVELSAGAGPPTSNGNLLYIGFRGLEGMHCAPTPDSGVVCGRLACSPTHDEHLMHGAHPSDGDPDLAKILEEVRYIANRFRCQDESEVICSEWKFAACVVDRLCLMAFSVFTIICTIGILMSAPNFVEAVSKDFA
Experimental: as §3, §4, §5
Competition Assay Using [^3H]Methyllycaconitine ([^3H]MLA) and Rat Brain P2-Fraction (α7*nAChR)
A dilution row of 6-9 concentrations of the test compound was prepared. Each assay sample, with a total volume of 250 μL contained 50 μL of the test compound, 100 μL of [^3H]MLA and 100 μL of the P2-membrane protein fraction (60-70 μg). Non-specific binding was determined in the presence of 1 μM MLA. The samples were homogenised and incubated for 120 min at 22° C. The incubation was terminated by vacuum filtration through glass fibre filters pre-soaked in 1% poly(ethyleneimine). The filters were rinsed three times with TRIS-buffer, punched out and transferred into 4 mL scintillation vials. The scintillation vials were filled with scintillation cocktail (2 mL) and the radioactivity was measured using a liquid scintillation counter.
Assays were carried out in duplicates, triplicates or quadruplicates.

T1 sequence (Q07263 22-495): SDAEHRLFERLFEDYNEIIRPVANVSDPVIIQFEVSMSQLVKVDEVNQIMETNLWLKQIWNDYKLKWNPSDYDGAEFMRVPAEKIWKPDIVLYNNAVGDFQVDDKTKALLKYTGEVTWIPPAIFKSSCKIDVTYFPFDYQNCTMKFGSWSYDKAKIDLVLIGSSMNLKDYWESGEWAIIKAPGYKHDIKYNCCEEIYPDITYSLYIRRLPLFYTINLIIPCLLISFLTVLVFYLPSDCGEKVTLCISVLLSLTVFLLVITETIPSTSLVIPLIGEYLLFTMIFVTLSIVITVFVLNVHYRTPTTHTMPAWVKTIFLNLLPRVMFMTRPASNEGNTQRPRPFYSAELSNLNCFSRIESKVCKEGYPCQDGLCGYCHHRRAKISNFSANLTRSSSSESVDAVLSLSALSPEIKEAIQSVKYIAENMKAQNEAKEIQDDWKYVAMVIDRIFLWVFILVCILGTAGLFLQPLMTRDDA
T1 sequence (Q8SPU6 20-496): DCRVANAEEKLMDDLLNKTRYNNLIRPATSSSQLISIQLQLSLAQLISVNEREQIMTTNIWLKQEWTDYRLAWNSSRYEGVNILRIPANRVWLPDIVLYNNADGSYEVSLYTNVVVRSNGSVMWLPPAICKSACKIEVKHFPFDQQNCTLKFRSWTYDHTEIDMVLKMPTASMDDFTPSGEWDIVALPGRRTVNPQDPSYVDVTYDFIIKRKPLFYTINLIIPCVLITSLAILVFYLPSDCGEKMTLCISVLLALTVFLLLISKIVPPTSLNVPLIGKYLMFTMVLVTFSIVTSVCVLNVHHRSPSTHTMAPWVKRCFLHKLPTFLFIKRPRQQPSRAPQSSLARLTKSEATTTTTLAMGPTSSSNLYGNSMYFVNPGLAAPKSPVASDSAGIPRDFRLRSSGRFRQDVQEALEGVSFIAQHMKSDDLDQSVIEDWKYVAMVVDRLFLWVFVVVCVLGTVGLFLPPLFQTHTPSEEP

SMILES	Ki (α3β4* nAChR)	Ki ((α1)2β1γδ nAChR)	Ki (α4β2* nAChR)	Ki (α7* nAChR)
O=c1c(-c2ccccc2)ccc2n1C[C@@H]1CNC[C@H]2C1 [93e, 3-Phenyl-cytisine]	> 10 µM	> 10 µM		
O=c1c(-c2cccc([N+](=O)[O-])c2)ccc2n1C[C@@H]1CNC[C@H]2C1 [94e, 3-(3′-Nitro-phenyl)-cytisine]	> 2 µM	> 10 µM	0.023 µM	> 10 µM
Cc1cccc(-c2ccc3n(c2=O)C[C@@H]2CNC[C@H]3C2)c1 [95e, 3-(3′-Methyl-phenyl)-cytisine]	> 10 µM	> 10 µM	0.028 µM	> 10 µM
O=c1c(-c2cccc(C(F)(F)F)c2)ccc2n1C[C@@H]1CNC[C@H]2C1 [96e, 3-(3′-Trifluoromethyl-phenyl)-cytisine]	3.7 µM	> 10 µM	0.0083 µM	> 10 µM
O=c1c(-c2cccc(OC(F)(F)F)c2)ccc2n1C[C@@H]1CNC[C@H]2C1 [97e, 3-(3′-Trifluoromethoxy-phenyl)-cytisine]	> 10 µM	> 10 µM	0.067 µM	> 10 µM
O=c1c(-c2cccc(Cl)c2)ccc2n1C[C@@H]1CNC[C@H]2C1 [98e, 3-(3′-Chloro-phenyl)-cytisine]	> 10 µM	> 10 µM	0.199 µM	> 10 µM
O=c1c(-c2cccc(F)c2)ccc2n1C[C@@H]1CNC[C@H]2C1 [99e, 3-(3′-Fluoro-phenyl)-cytisine]	1.2 µM	> 10 µM	0.0057 µM	> 10 µM
O=c1c(-c2cccc(-c3ccccc3)c2)ccc2n1C[C@@H]1CNC[C@H]2C1 [100e, 3-(Biphenyl-3′-yl)-cytisine]	> 10 µM	> 10 µM	0.2 µM	> 10 µM
O=c1ccc(-c2ccccc2)c2n1C[C@@H]1CNC[C@H]2C1 [103e, 5-Phenyl-cytisine]	> 10 µM	> 10 µM	0.045 µM	> 10 µM
O=c1ccc(-c2cccc([N+](=O)[O-])c2)c2n1C[C@@H]1CNC[C@H]2C1 [104e, 5-(3′-Nitro-phenyl)-cytisine]	0.481 µM	> 10 µM	0.0037 µM	> 10 µM
Cc1cccc(-c2ccc(=O)n3c2[C@H]2CNC[C@H](C2)C3)c1 [105e, 5-(3′-Methyl-phenyl)-cytisine]	> 10 µM	> 10 µM	0.024 µM	> 10 µM
O=c1ccc(-c2cccc(C(F)(F)F)c2)c2n1C[C@@H]1CNC[C@H]2C1 [106e, 5-(3′-Trifluoromethyl-phenyl)-cytisine]	> 10 µM	> 10 µM	0.055 µM	> 10 µM
O=c1ccc(-c2cccc(OC(F)(F)F)c2)c2n1C[C@@H]1CNC[C@H]2C1 [107e, 5-(3′-Trifluoromethoxy-phenyl)-cytisine]	> 10 µM	> 10 µM	0.023 µM	> 10 µM
O=c1ccc(-c2cccc(Cl)c2)c2n1C[C@@H]1CNC[C@H]2C1 [108e, 5-(3′-Chloro-phenyl)-cytisine]	> 10 µM	> 10 µM	0.17 µM	> 10 µM
O=c1ccc(-c2cccc(F)c2)c2n1C[C@@H]1CNC[C@H]2C1 [109e, 5-(3′-Fluoro-phenyl)-cytisine]	> 2 µM	> 10 µM	0.3 µM	> 10 µM
O=c1c(-c2ccc3c(c2)OCO3)ccc2n1C[C@@H]1CNC[C@H]2C1 [118e, 3-(3′,4′-Methylenedioxy-phenyl)-cytisine]	> 10 µM	> 10 µM		
O=c1c(-c2cccnc2)ccc2n1CC1CNCC2C1 (stereo not shown) [119e, 3-(Pyridin-3′-yl)-cytisine]				> 10 µM
O=c1c(-c2ccncc2)ccc2n1C[C@@H]1CNC[C@H]2C1 [120e, 3-(Pyridin-4′-yl)-cytisine]		> 10 µM		
O=c1c(-c2cccnc2)ccc2n1CC1CNCC2C1 (stereo not shown) [drawing 100]		> 10 µM	0.00091 µM	
